From patent publication US10939680B2, “Herbicidal composition” (priority 2014, dated 2021)

How the values were obtained:
[1] = system: blackgrass (Alopecurus myosuroides); test: Efficiency test of the herbicidal composition on blackgrass in field crops; type: in vivo; details: for percentage of weeds eliminated, Trial No. ALS12H48 -05: 44 DAA; for percentage of weeds eliminated, Trial No. ALS11H56-01: 50 DAA; for Maximum percentage of weeds eliminated: maximum of the trials; for Maximum percentage of weeds eliminated / Minimum percentage of weeds eliminated: 44-50 DAA; for Minimum percentage of weeds eliminated: minimum of the trials
Method: Trials were also carried out to show the efficiency of the herbicidal composition referred to in the invention on a second weed called blackgrass. This plant is an annual plant and has traditionally been seen as a weed in cultivated fields.
The composition was tested on crops including crops of beetroot (Sugar beet, Beta vulgaris), oilseed rape (OSR, Brassica napus).
The same compounds that were used in Example 1 were evaluated for efficiency.
In the same manner as for Example 1, different trials were carried out in different fields, in each which a plant of interest was cultivated.
In this example, tests were carried out on two plots of oilseed rape, on the one hand, and in a lot of beetroot on the other hand.
The efficiency of different products and the herbicidal composition referred to in the invention have been evaluated at different intervals following the application (DAA) of the aforementioned products onto the crop in question.
For example, the efficiency of products has been measured at 44, 46 and 50 days following application of the products.

[2] = system: rye-grass (Lolium multiflorum); test: Efficiency test of the herbicidal composition on rye-grass in oilseed rape fields; type: in vivo; details: for percentage of weeds eliminated, Trial ALS11H56-02 / percentage of weeds eliminated, Trial ALS11H56-04 / percentage of weeds eliminated, Trial ALS12H56-03: crop OSR; for percentage of weeds eliminated, Trial ALS11H56-02 / percentage of weeds eliminated, Trial ALS11H56-04: 53 DAA; for percentage of weeds eliminated, Trial ALS12H56-03: 58 DAA; for Maximum percentage of weeds eliminated: maximum of three OSR trials; for Maximum percentage of weeds eliminated / Minimum percentage of weeds eliminated: 53-58 DAA; for Minimum percentage of weeds eliminated: minimum of three OSR trials
Source text: This plant, also called […] or Italian rye-grass (Lolium multiflorum) is traditionally considered to be a pest.
The composition has been tested on different parcels of oilseed rape (OSR for Oilseed rape, Brassica napus).
Findings relating to damages caused by the different compounds that were trialed are set out in percentages of weeds eliminated from 0 to 100% with respect to a trialed lot in which no herbicidal treatment was applied. The number, 0, corresponds to no observed damage to weeds whereas the number, 100, corresponds to an elimination of the entirety of the weeds.
Further, a volume of 0.8 L of the aforementioned composition has been applied per hectare to the treated lot.
Quizalofop-p-ethyl and flauzifop-p-butyl belong to the aryloxyphenoxypropionate family. A volume of 1.2 L of quizalofop-p-ethyl per hectare and a volume of 1.5 L of flauzifop-p-butyl per hectare have respectively been applied.
The compositions—ALSNC10HCLQ01 0.8 and Q+C 1:1 (0.4-0.5 liters per hectare) and quizalofop-p-ethyl (1.2 liters per hectare) which were tested have been diluted, prior to their application, in 1 L of adjuvant oil (Actirob).
Different trials have been conducted in different fields where oilseed rape (OSR) is grown. The efficiency of different products and of the herbicidal composition referred to in the invention have been evaluated at different time intervals following the application of the said products to the crop in question (DAA means “days after application”). For example, the efficiency of products has been measured 53 and 58 days after application to the field of oilseed rape. These intervals following application of the composition are necessary and adequate to enable the ultimate efficiency of the trialed products to be judged.

Row | Structure (SMILES) | percentage of weeds eliminated, Trial No. ALS12H48 -05 ([1]; crop OSR) | percentage of weeds eliminated, Trial No. ALS11H42-02 ([1]; crop OSR, 46 DAA) | percentage of weeds eliminated, Trial No. ALS11H56-01 ([1]; crop OSR) | Maximum percentage of weeds eliminated [1] | Minimum percentage of weeds eliminated [1] | percentage of weeds eliminated, Trial ALS11H56-02 [2] | percentage of weeds eliminated, Trial ALS11H56-04 [2] | percentage of weeds eliminated, Trial ALS12H56-03 [2] | Maximum percentage of weeds eliminated [2] | Minimum percentage of weeds eliminated [2]
1 | CCOC(=O)[C@@H](C)Oc1ccc(Oc2cnc3cc(Cl)ccc3n2)cc1 [quizalofop-p-ethyl] | 50% | 30% | 63% | 63% | 30% | 26% | 76% | 68% | 76% | 26%
2 | CCCCOC(=O)[C@@H](C)Oc1ccc(Oc2ccc(C(F)(F)F)cn2)cc1 [flauzifop-p-butyl] | 52% | – | 76% | 76% | 52% | 3% | 66% | 46% | 66% | 3%
